These results are taken from patent publication US10624897B2, “Chlorobenzene substituted azaaryl compounds” (TAIPEI MEDICAL UNIVERSITY, priority 2015, dated 2020).

Assay [1] relates to RT-112 tumor xenografts. The settings on record: for Tumor growth inhibition (%): i.p., nude mice.
Protocol: Eight-week-old female athymic nude mice were group-housed in the TMU Laboratory Animal Center (Taipei, Taiwan) under conditions of constant photoperiod (12 h light/12 h dark at 21-0023° C. and 60-85% humidity) with ad libitum access to sterilized food and water. […] Tumors were measured weekly using calipers. Tumor volume (mm3) was calculated from w2×½ (w=width, 1=length in mm of the tumor).
Assay [2] concerns RT-112 cells. Kind of assay: Cell cycle distribution by flow cytometry. The assay is classed as cell-based. The note with it: 48 h to 72 h, FIG. 3A. (In general: A flow cytometer gives signals particle by particle.)
Assay [3] concerns HL-60. Kind of assay: MTT assay, cell viability. The assay is classed as cell-based. The settings on record: Homo sapiens; HL-60, AML, 72 hours; read-out: IC50 (μM, Mean ± SD). An outline of the steps: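 Cells seeded at 5,000/well, attached overnight, then exposed to agents for 72 h in medium with 10% FBS at 37 °C, 5% CO2. Viability by MTT (0.5 mg/mL, 1 h), DMSO solubilisation, absorbance 550 nm; given as percent of DMSO-treated control.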
A general note: Tetrazolium dyes change colour on reduction, which living cells bring about.

Like-named read-outs stand apart in the source and are kept apart here.

In general, IC50 refers to the concentration needed to halve the response being measured.

Turning to `CCN1CCN(c2ccc(Nc3ncnc(N(C)C(=O)Nc4c(Cl)c(OC)c(Cl)c(OC)c4Cl)n3)cc2)CC1` [MPT0L145, 1-(4-((4-(4-ethylpiperazin-1-yl)phenyl)amino)-1,3,5-triazin-2-yl)-1-methyl-3-(2,4,6-trichloro-3,5-dimethoxyphenyl)urea], the “Tumor growth inhibition (%)” value in assay [1] (5 mg/kg/d) came out at 61.4%; in assay [1] (10 mg/kg/d), 74.6%. Besides, the tumor growth result in assay [1] (5 and 10 mg/kg/d i.p., dose-dependent) is given as “significantly suppressed tumor growth”. Also, the “accumulation of the sub-G1 phase (apoptotic cell death)” value in assay [2] was “did not promote accumulation of the sub-G1 phase”. Also, the IC50 in assay [3] stood at 4.72 ± 1.46 µM.
